This note sets out measurements from article PMC12053997, “D-enantiomeric antibiofilm peptides effective against anaerobic Cutibacterium acnes biofilm” (Microbiology Spectrum, 2025).

For test [1], the system named is C. acnes strains (C2, C5, PJI2, PJI8). On the procedure: (§1) C. acnes strains were isolated on Columbia agar containing 5% sheep blood (BioRad, Hercules, California, USA) and cultivated in Brain Heart Infusion (BHI) broth (BioRad, Hercules, California, USA) for 5 days, under anaerobic conditions using the GenBox system (Biomérieux, Marcy l’Etoile, France), at 37°C. For all assays, one colony of isolated C. acnes strains was inoculated in a 1.5 mL vial containing 1.5 mL of BHI. After 5–6 days of incubation (stationary phase reached after 4 days) at 37°C, the absorbance (at 600 nm) of the bacterial culture was adjusted to 1. The bacterial suspension was then diluted in BHI broth at 1/100 (OD: 0.01) and 1 mL of this suspension was inoculated in each well of 24- or 48-well plates.
(§2) Peptides were added to a 48-well plate at the desired concentrations in BHI medium and diluted bacteria were inoculated as described in the “Bacterial Strain Culture” section. Plates were incubated at 37°C, under anaerobic conditions using the GenBox system, for 5–6 days. The effect of the peptide on planktonic growth was determined by measuring the MIC which was defined as the concentration in the well containing the minimal amount of compound that leads to the absence of visible bacterial growth, according to Wiegand et al. ([38]). […] Finally, 48-well plates containing cultures with or without peptides were washed three times with water to remove unattached bacteria. Adhered bacteria were stained with 1 mL of 0.2% crystal violet for 20 min, then washed with water, and crystal violet was extracted with 95% ethanol (vol/vol). The quantity of biofilm (biomass) was analyzed by measuring the absorbance of the crystal violet suspension at 595 nm using the SpectroStar nano spectrophotometer (BMG Labtech, Ortenberg, Germany). The Minimal Biofilm Inhibition Concentration (MBIC) was defined as the concentration in the well containing the minimal quantity of peptide where the crystal violet absorbance, corrected by the blank, was null. Experiments were performed three independent times in technical duplicate for each strain.

Test [2] shares this test system. Nature of the test: microbe, parasite or virus in culture. As to the method:
as §1, §2

≈ marks a conversion by molar mass, not a printed value. Where two headings read alike, the source gives them in different places. Where a SMILES comes first, the peptide text is derived from it. Where no end group is shown, it is not given here. [ ]: non-standard residue; d: D form.

`CC[C@@H](C)[C@@H](NC(=O)[C@@H](CCCNC(=N)N)NC(=O)[C@@H](CCCNC(=N)N)NC(=O)[C@@H](Cc1c[nH]c2ccccc12)NC(=O)[C@@H](CCC(N)=O)NC(=O)[C@H](N)C(C)C)C(=O)N[C@@H](C(=O)N[C@@H](C(=O)N[C@H](CCCNC(=N)N)C(=O)N[C@@H](C(=O)N[C@@H](C(=O)N[C@H](CCCNC(=N)N)C(N)=O)[C@H](C)CC)C(C)C)C(C)C)[C@H](C)CC` [AB008-D] (H-[dV][dQ][dW][dR][dR][dI][dI][dV][dR][dV][dI][dR]-NH2) registered an MBIC in test [1] (strains (C2, C5, PJI2, PJI8)) of 32 µg/mL. The MBC in test [2] (strains (C2, C5, PJI2, PJI8)) is recorded as more than 64 µg/mL.
On to `CC[C@@H](C)[C@@H](NC(=O)[C@@H](CCCNC(=N)N)NC(=O)[C@@H](CCCNC(=N)N)NC(=O)[C@@H](Cc1c[nH]c2ccccc12)NC(=O)[C@@H](CCC(N)=O)NC(=O)[C@H](N)C(C)C)C(=O)N[C@H](CC(C)C)C(=O)N[C@@H](C(=O)N[C@H](CCCNC(=N)N)C(=O)N[C@@H](C(=O)N[C@@H](C(=O)N[C@H](CCCNC(=N)N)C(N)=O)[C@H](C)CC)C(C)C)C(C)C` [AB009-D] (H-[dV][dQ][dW][dR][dR][dI][dL][dV][dR][dV][dI][dR]-NH2), for which the MICs in test [2] (strains (C2, C5, PJI2, PJI8)) was in the range of 16 to 32 µg/mL.
`CC[C@@H](C)[C@@H](NC(=O)[C@@H](CCCNC(=N)N)NC(=O)[C@H](N)CCCCN)C(=O)N[C@H](CCCNC(=N)N)C(=O)N[C@H](Cc1c[nH]c2ccccc12)C(=O)N[C@@H](C(=O)N[C@@H](C(=O)N[C@H](CC(C)C)C(=O)N[C@H](CCCNC(=N)N)C(=O)N[C@@H](C(=O)N[C@@H](C(=O)N[C@H](CCCNC(=N)N)C(N)=O)[C@H](C)CC)C(C)C)[C@H](C)CC)C(C)C` [AB101-D] (H-[dK][dR][dI][dR][dW][dV][dI][dL][dR][dV][dI][dR]-NH2) displayed an MICs in test [2] (strains (C2, C5, PJI2, PJI8)) of 16 to 32 µg/mL.
As for `CC[C@@H](C)[C@@H](NC(=O)[C@@H](C)NC(=O)[C@@H](CCCNC(=N)N)NC(=O)[C@@H](Cc1c[nH]c2ccccc12)NC(=O)[C@@H](CCC(N)=O)NC(=O)[C@H](N)C(C)C)C(=O)N[C@H](CCCNC(=N)N)C(=O)N[C@@H](C(=O)N[C@H](CCCNC(=N)N)C(=O)N[C@@H](C(=O)N[C@@H](C(=O)N[C@H](CCCNC(=N)N)C(N)=O)[C@H](C)CC)C(C)C)C(C)C` [DJK5, reference compound] (H-[dV][dQ][dW][dR][dA][dI][dR][dV][dR][dV][dI][dR]-NH2), the MICs in test [2] (strains (C2, C5, PJI2, PJI8)) was in the range of 16 to 32 µg/mL.
Consider `CO[C@H]1/C=C/O[C@@]2(C)Oc3c(C)c(O)c4c(O)c(c(/C=N/N5CCN(C)CC5)c(O)c4c3C2=O)NC(=O)/C(C)=C\C=C\[C@H](C)[C@H](O)[C@@H](C)[C@@H](O)[C@@H](C)[C@H](OC(C)=O)[C@@H]1C` [Rifampicin, rifampicin, reference compound], for which the MBIC was 0.002 to 0.004 µg/mL in test [1] (strain C2, n=3); 0.008 µg/mL in test [1] (strain C5, n=3); 0.004 to 0.008 µg/mL in test [1] (strain PJI2, n=3); 0.008 µg/mL in test [1] (strain PJI8, n=3). Moreover, the MIC in test [2] (Cutibacterium acnes) turned out to be 0.008 µg/mL (≈ 9.72 nM); in test [2] (strain C5, n=3), 0.008 µg/mL (≈ 9.72 nM); in test [2] (strain PJI2, n=3) it was 0.008 µg/mL (≈ 9.72 nM); in test [2] (strain PJI8, n=3) it was 0.008 µg/mL (≈ 9.72 nM). Further, the MBC was more than 0.064 µg/mL in test [2] (Cutibacterium acnes, strain C2, n=3); more than 0.064 µg/mL in test [2] (Cutibacterium acnes, strain C5, n=3); more than 0.064 µg/mL in test [2] (Cutibacterium acnes, strain PJI2, n=3); 0.008 to 0.016 µg/mL (≈ 9.72 to 19.4 nM) in test [2] (Cutibacterium acnes, strain PJI8, n=3).
For “VRLIVAVRIWRR-NH2 [Peptide 1018, reference compound]”, the MBIC in test [1] (strain C2, crystal violet absorbance 595 nm null, n = 3 (n = 2 for 1018, AB008-D)) was 32 µg/mL; in test [1] (strain C5, crystal violet absorbance 595 nm null, n = 3 (n = 2 for 1018, AB008-D)), 32 µg/mL; in test [1] (strain PJI2, crystal violet absorbance 595 nm null, n = 3 (n = 2 for 1018, AB008-D)), 32 µg/mL; in test [1] (strain PJI8, crystal violet absorbance 595 nm null, n = 3 (n = 2 for 1018, AB008-D)), 32 µg/mL. The MIC was more than 64 µg/mL in test [2] (strain C2, BHI, anaerobic, 37°C, 5–6 days, n = 3 (n = 2 for 1018, AB008-D)); more than 64 µg/mL in test [2] (strain C5, BHI, anaerobic, 37°C, 5–6 days, n = 3 (n = 2 for 1018, AB008-D)); more than 64 µg/mL in test [2] (strain PJI2, BHI, anaerobic, 37°C, 5–6 days, n = 3 (n = 2 for 1018, AB008-D)); more than 64 µg/mL in test [2] (strain PJI8, BHI, anaerobic, 37°C, 5–6 days, n = 3 (n = 2 for 1018, AB008-D)). Besides, the MBC is recorded as more than 64 µg/mL in test [2] (strain C2, no colonies on blood agar after 5–6 days anaerobic, n = 3 (n = 2 for 1018, AB008-D)); more than 64 µg/mL in test [2] (strain C5, no colonies on blood agar after 5–6 days anaerobic, n = 3 (n = 2 for 1018, AB008-D)); more than 64 µg/mL in test [2] (strain PJI2, no colonies on blood agar after 5–6 days anaerobic, n = 3 (n = 2 for 1018, AB008-D)); more than 64 µg/mL in test [2] (strain PJI8, no colonies on blood agar after 5–6 days anaerobic, n = 3 (n = 2 for 1018, AB008-D)).
